Drawing on US20090325959A1 (priority 2008, published 2009), this text covers Ki and concentration for 13 compounds.

The target of one series is T1, Akt3 human enzyme (Homo sapiens, UniProt Q9Y243).
T1 construct: purchased Upstate Chemicon 14-502
Description: Akt3 inhibition assay (IMAP FP).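 Further: kinase reaction run 60 min at room temperature after 30 µM ATP start, phosphorylated substrate captured on IMAP beads and read as fluorescence polarization (mP).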 The format is biochemical.

The next series has as its target T2, p70S6K human enzyme (Homo sapiens, UniProt P23443, T412E).
T2 construct: purchased Upstate Chemicon 14-486
Description: p70S6K inhibition assay (IMAP FP).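 Further: kinase reaction run at room temperature, phosphorylated substrate captured on IMAP beads and read as fluorescence polarization in mP, IC50 then converted to Ki.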 The format is biochemical.

Series [1] in a line: Compound plasma concentrations in unsensitized mice at 15 min post administration. The following applies: mouse, 15 μmol/kg; mean compound plasma concentration in mice at 15 minutes post oral administration; read-out: Mouse Oral PK. Type of series: in vivo.
A further series has as its target T3, ROCK1 (Homo sapiens, UniProt Q13464).
T3 construct: purchased Upstate/Chemicon 14-601
As to the kind of experiment: Rho kinase inhibition assay (IMAP fluorescence polarization), ROCK1.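 Further: kinase reaction run 60 min at room temperature, then phosphorylated substrate captured on IMAP beads for 30 min, with fluorescence polarization read in mP.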 Type of series: biochemical. For orientation: In fluorescence polarisation assays a small probe gives low polarisation when free and higher when bound to something large.

The next series addresses T4, ROCK2 (Homo sapiens, UniProt O75116).
T4 construct: purchased Upstate/Chemicon 14-451
Description: Rho kinase inhibition assay (IMAP fluorescence polarization), ROCK2.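 Further: kinase reaction started with 10 µM ATP and run 60 min at room temperature, then phosphorylated substrate captured on IMAP beads for 30 min and fluorescence polarization read in mP.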 The format is biochemical.

Where [2] appears, read: 30 μM ATP, Ki=IC50/(1+([ATP Challenge]/EC50 ATP)), read-out: Akt3 Ki, Avg.
[3] abbreviates: 30 μM ATP, Ki=IC50/(1+([ATP Challenge]/EC50 ATP)), read-out: p70S6K Ki, Avg.
Setting [4] is: average Ki, read-out: p70S6K Ki.
[5] abbreviates: 10 μM ATP, read-out: ROCK2 Ki, Avg.

Like-named read-outs stand apart in the source and are kept apart here.

T4 sequence (O75116 11-552 limits assumed): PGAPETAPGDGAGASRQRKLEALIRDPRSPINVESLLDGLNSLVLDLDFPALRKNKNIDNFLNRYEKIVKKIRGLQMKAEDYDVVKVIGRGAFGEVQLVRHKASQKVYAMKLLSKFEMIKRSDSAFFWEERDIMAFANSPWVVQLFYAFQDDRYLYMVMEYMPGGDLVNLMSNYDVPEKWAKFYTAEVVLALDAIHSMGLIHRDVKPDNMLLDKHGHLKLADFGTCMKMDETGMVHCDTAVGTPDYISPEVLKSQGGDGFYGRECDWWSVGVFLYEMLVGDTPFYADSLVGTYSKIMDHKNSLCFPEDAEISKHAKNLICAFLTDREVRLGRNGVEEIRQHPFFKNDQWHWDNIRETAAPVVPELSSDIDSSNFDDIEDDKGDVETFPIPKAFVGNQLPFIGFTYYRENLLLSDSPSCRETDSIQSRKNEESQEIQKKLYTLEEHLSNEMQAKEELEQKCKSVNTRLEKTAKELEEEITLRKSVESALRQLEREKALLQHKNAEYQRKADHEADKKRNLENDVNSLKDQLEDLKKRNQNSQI
T2 sequence (P23443 1-421 T412E limits assumed): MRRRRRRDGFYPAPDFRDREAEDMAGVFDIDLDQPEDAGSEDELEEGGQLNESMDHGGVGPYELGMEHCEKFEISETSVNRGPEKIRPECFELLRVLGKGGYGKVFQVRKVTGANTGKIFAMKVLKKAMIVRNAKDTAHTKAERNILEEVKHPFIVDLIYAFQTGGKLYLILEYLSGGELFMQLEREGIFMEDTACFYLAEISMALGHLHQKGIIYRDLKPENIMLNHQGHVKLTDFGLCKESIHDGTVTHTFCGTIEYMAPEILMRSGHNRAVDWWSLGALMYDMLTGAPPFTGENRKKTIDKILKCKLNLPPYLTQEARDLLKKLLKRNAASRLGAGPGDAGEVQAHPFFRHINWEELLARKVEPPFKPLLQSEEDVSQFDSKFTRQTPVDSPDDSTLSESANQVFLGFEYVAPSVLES
T1 sequence (Q9Y243 whole entry): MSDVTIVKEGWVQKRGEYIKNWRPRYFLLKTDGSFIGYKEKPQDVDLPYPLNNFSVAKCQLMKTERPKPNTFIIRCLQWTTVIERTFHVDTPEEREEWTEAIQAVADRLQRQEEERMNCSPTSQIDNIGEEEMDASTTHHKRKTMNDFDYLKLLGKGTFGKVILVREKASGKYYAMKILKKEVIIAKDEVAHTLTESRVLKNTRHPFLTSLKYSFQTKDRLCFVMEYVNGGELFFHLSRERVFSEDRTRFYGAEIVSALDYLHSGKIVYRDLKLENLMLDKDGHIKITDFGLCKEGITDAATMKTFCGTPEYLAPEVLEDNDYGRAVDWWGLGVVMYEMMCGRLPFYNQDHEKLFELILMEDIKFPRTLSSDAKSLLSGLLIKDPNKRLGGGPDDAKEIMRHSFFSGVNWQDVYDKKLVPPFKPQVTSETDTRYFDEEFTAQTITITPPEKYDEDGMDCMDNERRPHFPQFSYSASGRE
T3 sequence (Q13464 17-535 limits assumed): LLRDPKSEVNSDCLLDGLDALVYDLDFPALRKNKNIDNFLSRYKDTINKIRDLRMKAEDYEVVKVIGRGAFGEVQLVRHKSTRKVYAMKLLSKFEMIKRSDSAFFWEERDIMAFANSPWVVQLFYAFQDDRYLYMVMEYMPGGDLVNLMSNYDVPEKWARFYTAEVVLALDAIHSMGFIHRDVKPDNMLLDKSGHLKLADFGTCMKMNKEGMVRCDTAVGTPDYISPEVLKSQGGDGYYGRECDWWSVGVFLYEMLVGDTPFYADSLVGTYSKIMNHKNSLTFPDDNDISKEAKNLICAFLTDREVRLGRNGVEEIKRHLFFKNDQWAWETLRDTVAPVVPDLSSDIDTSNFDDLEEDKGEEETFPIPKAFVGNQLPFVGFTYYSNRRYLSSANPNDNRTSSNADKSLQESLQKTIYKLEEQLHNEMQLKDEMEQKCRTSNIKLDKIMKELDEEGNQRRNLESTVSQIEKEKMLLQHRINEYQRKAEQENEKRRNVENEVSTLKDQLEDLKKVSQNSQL
Description for ROCK1: (§1) Following the pre-incubation, 10 μM ATP was added to initiate the reaction. After 60 minutes at room temperature, Molecular Devices IMAP™ binding solution was added to bind phosphorylated substrate. After 30 minutes of incubation in the presence of the IMAP™ beads, the fluorescence polarization was read and the ratio was reported as mP. IC50 values for compounds and EC50 values for ATP were calculated using the Prism software from Graphpad.
Description for ROCK2: as §1

Consider `c1cc2c(cc1CN1CCC[C@H](Nc3ccc4[nH]ncc4c3)C1)OCCO2` [Compound 1.166, (S)-N-(1-((2,3-dihydrobenzo[b][1,4]dioxin-6-yl)methyl)piperidin-3-yl)-1H-indazol-5-amine], for which the Ki at Akt3 human enzyme (setting [2]) amounted to 18100 nM; at Akt3 human enzyme (average Ki, read-out: Akt3 Ki), 18100 nM; on p70S6K human enzyme (setting [3]), 5160 nM; at p70S6K human enzyme (setting [4]) it was 5160 nM; on ROCK1 (Avg, 10 μM ATP), 95.2 nM; at ROCK1 (average Ki), 95.2 nM. Further, the Ki at ROCK2 (setting [5]) was 8 nM; on ROCK2 (average Ki, read-out: ROCK2 Ki), 8 nM. Also, the concentration at 15 min in series [1] came to 342 nM.

In the case of `Cc1cccc(CN2CCC[C@H](Nc3ccc4[nH]ncc4c3)C2)c1` [Compound 1.171, (S)-N-(1-(3-methylbenzyl)piperidin-3-yl)-1H-indazol-5-amine], the Ki at Akt3 human enzyme (setting [2]) was found to be 9330 nM; on Akt3 human enzyme (average Ki, read-out: Akt3 Ki) it was 9330 nM; at p70S6K human enzyme (setting [3]), 3420 nM; on p70S6K human enzyme (setting [4]), 3420 nM; on ROCK1 (Avg, 10 μM ATP), 109 nM; at ROCK1 (average Ki), 109 nM. In addition, the Ki on ROCK2 (setting [5]) was 16 nM; at ROCK2 (average Ki, read-out: ROCK2 Ki), 16 nM. The concentration at 15 min in series [1] was determined as 369 nM.

Consider `c1cc(CN2CCC[C@H](Nc3ccc4[nH]ncc4c3)C2)cc(C2CC2)c1` [Compound 1.186, (S)-N-(1-(3-cyclopropylbenzyl)piperidin-3-yl)-1H-indazol-5-amine], for which the Ki on Akt3 human enzyme (setting [2]) came to 10200 nM; on Akt3 human enzyme (average Ki, read-out: Akt3 Ki), 10200 nM; at p70S6K human enzyme (setting [3]), 1610 nM; on p70S6K human enzyme (setting [4]), 1610 nM; at ROCK1 (Avg, 10 μM ATP), 129 nM; at ROCK1 (average Ki) it was 129 nM. Moreover, the Ki stood at 11.9 nM on ROCK2 (setting [5]) and 11.9 nM on ROCK2 (average Ki, read-out: ROCK2 Ki). In addition, the concentration at 15 min in series [1] stood at 2170 nM.

Consider `NC(=O)COc1cccc(CN2CCC[C@H](Nc3ccc4[nH]ncc4c3)C2)c1` [Compound 1.195], for which the inhibition constant (Ki) on Akt3 human enzyme (setting [2]) was found to be 22000 nM; on Akt3 human enzyme (average Ki, read-out: Akt3 Ki), 22000 nM; on p70S6K human enzyme (setting [3]) it was 2730 nM; on p70S6K human enzyme (setting [4]), 2730 nM; on ROCK1 (Avg, 10 μM ATP) it was 196 nM; at ROCK1 (average Ki), 196 nM. For the same compound, the Ki on ROCK2 (setting [5]) was 10.3 nM; on ROCK2 (average Ki, read-out: ROCK2 Ki), 10.3 nM. Moreover, in series [1], the concentration at 15 min amounted to 108 nM.

On to `CCOC(=O)COc1cccc(CN2CCC[C@H](Nc3ccc4[nH]ncc4c3)C2)c1` [Compound 1.200, (S)-ethyl 2-(3-((3-(1H-indazol-5-ylamino)piperidin-1-yl)methyl)phenoxy)acetate], for which the Ki was determined as 10600 nM at Akt3 human enzyme (setting [2]); 10600 nM at Akt3 human enzyme (average Ki, read-out: Akt3 Ki); 3900 nM on p70S6K human enzyme (setting [3]); 3900 nM on p70S6K human enzyme (setting [4]); 76.5 nM on ROCK1 (Avg, 10 μM ATP); 76.5 nM at ROCK1 (average Ki). In addition, the Ki stood at 5.9 nM on ROCK2 (setting [5]) and 5.9 nM on ROCK2 (average Ki, read-out: ROCK2 Ki). Further, the concentration at 15 min in series [1] is 0 nM.

As for `CS(=O)(=O)Nc1cc(CN2CCC[C@@H](Nc3ccc4[nH]ncc4c3)C2)ccc1Cl` [Compound 1.212, (R)-N-(5-((3-(1H-indazol-5-ylamino)piperidin-1-yl)methyl)-2-chlorophenyl)methanesulfonamide], the Ki came out at 390 nM at Akt3 human enzyme (setting [2]); 390 nM at Akt3 human enzyme (average Ki, read-out: Akt3 Ki); 894 nM at p70S6K human enzyme (setting [3]); 894 nM at p70S6K human enzyme (setting [4]); 44.2 nM on ROCK1 (Avg, 10 μM ATP); 44.2 nM at ROCK1 (average Ki). Further, the Ki on ROCK2 (setting [5]) amounted to 3.9 nM; on ROCK2 (average Ki, read-out: ROCK2 Ki), 3.9 nM. Also, the concentration at 15 min in series [1] stood at 863 nM.

On to `OCCN1CCc2ccc(CN3CCC[C@H](Nc4ccc5[nH]ncc5c4)C3)cc21` [Compound 1.217, (S)-2-(6-((3-(1H-indazol-5-ylamino)piperidin-1-yl)methyl)indolin-1-yl)ethanol], for which the Ki at Akt3 human enzyme (setting [2]) is 10300 nM; on Akt3 human enzyme (average Ki, read-out: Akt3 Ki), 10300 nM; at p70S6K human enzyme (setting [3]), 3500 nM; at p70S6K human enzyme (setting [4]), 3500 nM; on ROCK1 (Avg, 10 μM ATP), 70.1 nM; at ROCK1 (average Ki), 70.1 nM. For the same compound, the Ki at ROCK2 (setting [5]) was determined as 12.1 nM; on ROCK2 (average Ki, read-out: ROCK2 Ki) it was 12.1 nM. For the same compound, the concentration at 15 min in series [1] came out at 293 nM.

On to `NC(=O)c1cccc(CN2CCC[C@H](Nc3ccc4[nH]ncc4c3)C2)c1` [Compound 1.219, (8)-3-((3-(1H-indazol-5-ylamino)piperidin-1-yl)methyl)benzamide], for which the Ki on Akt3 human enzyme (setting [2]) is 38300 nM; on Akt3 human enzyme (average Ki, read-out: Akt3 Ki) it was 38300 nM; on p70S6K human enzyme (setting [3]), 4970 nM; on p70S6K human enzyme (setting [4]), 4970 nM; at ROCK1 (Avg, 10 μM ATP), 344 nM; at ROCK1 (average Ki) it was 344 nM. Moreover, the inhibitory constant (Ki) stood at 15.4 nM on ROCK2 (setting [5]) and 15.4 nM at ROCK2 (average Ki, read-out: ROCK2 Ki). The concentration at 15 min in series [1] worked out at 1680 nM.

Consider `OCc1ccc(CN2CCC[C@H](Nc3ccc4[nH]ncc4c3)C2)cc1` [Compound 1.223, (S)-(4-((3-(1H-indazol-5-ylamino)piperidin-1-yl)methyl)phenyl)methanol], for which the Ki was 11100 nM on Akt3 human enzyme (setting [2]); 11100 nM at Akt3 human enzyme (average Ki, read-out: Akt3 Ki); 3100 nM at p70S6K human enzyme (setting [3]); 3100 nM on p70S6K human enzyme (setting [4]); 239 nM on ROCK1 (Avg, 10 μM ATP); 239 nM at ROCK1 (average Ki). Further, the Ki at ROCK2 (setting [5]) was found to be 15.7 nM; on ROCK2 (average Ki, read-out: ROCK2 Ki), 15.7 nM. The concentration at 15 min in series [1] was found to be 13 nM.

As for `Cc1ccc(CN2CCC[C@H](Nc3ccc4[nH]ncc4c3)C2)cc1NS(C)(=O)=O` [Compound 1.233, (S)-N-(5-((3-(1H-indazol-5-ylamino)piperidin-1-yl)methyl)-2-methylphenyl)methanesulfonamide], the Ki is 2630 nM on Akt3 human enzyme (setting [2]); 2630 nM at Akt3 human enzyme (average Ki, read-out: Akt3 Ki); 2000 nM at p70S6K human enzyme (setting [3]); 2000 nM on p70S6K human enzyme (setting [4]); 47.2 nM on ROCK1 (Avg, 10 μM ATP); 47.2 nM at ROCK1 (average Ki). Also, the Ki at ROCK2 (setting [5]) stood at 1.3 nM; on ROCK2 (average Ki, read-out: ROCK2 Ki), 1.3 nM. In addition, the concentration at 15 min in series [1] came out at 41 nM.

For the compound `CCCCS(=O)(=O)Nc1cc(CN2CCC[C@H](Nc3ccc4[nH]ncc4c3)C2)ccc1C` [Compound 1.236, (S)-N-(5-((3-(1H-indazol-5-ylamino)piperidin-1-yl)methyl)-2-methylphenyl)butane-1-sulfonamide], the Ki was 3720 nM on Akt3 human enzyme (setting [2]); 3720 nM at Akt3 human enzyme (average Ki, read-out: Akt3 Ki); 2760 nM on p70S6K human enzyme (setting [3]); 2760 nM on p70S6K human enzyme (setting [4]); 49.3 nM on ROCK1 (Avg, 10 μM ATP); 49.3 nM on ROCK1 (average Ki). The Ki was found to be 2.1 nM at ROCK2 (setting [5]) and 2.1 nM at ROCK2 (average Ki, read-out: ROCK2 Ki). For the same compound, the concentration at 15 min in series [1] turned out to be 48 nM.

Turning to `NS(=O)(=O)c1cccc(CN2CCC[C@@H](Nc3ccc4[nH]ncc4c3)C2)c1` [Compound 1.249, (R)-3-((3-(1H-indazol-5-ylamino)piperidin-1-yl)methyl)benzenesulfonamide], the Ki on Akt3 human enzyme (setting [2]) amounted to 1600 nM; at Akt3 human enzyme (average Ki, read-out: Akt3 Ki) it was 1600 nM; on p70S6K human enzyme (setting [3]) it was 937 nM; at p70S6K human enzyme (setting [4]), 937 nM; on ROCK1 (Avg, 10 μM ATP), 91.7 nM; on ROCK1 (average Ki), 91.7 nM. Further, the inhibitory constant (Ki) is 8.6 nM on ROCK2 (setting [5]) and 8.6 nM on ROCK2 (average Ki, read-out: ROCK2 Ki). Further, in series [1], the concentration at 15 min was 2150 nM.

In the case of `c1ccc2c(CN3CCC[C@@H](Nc4ccc5[nH]ncc5c4)C3)c[nH]c2c1` [Compound 1.252, (R)-N-(1-((1H-indol-3-yl)methyl)piperidin-3-yl)-1H-indazol-5-amine], the Ki on Akt3 human enzyme (setting [2]) turned out to be 205 nM; on Akt3 human enzyme (average Ki, read-out: Akt3 Ki), 205 nM; at p70S6K human enzyme (setting [3]), 171 nM; on p70S6K human enzyme (setting [4]), 171 nM; at ROCK1 (Avg, 10 μM ATP), 30.5 nM; on ROCK1 (average Ki), 30.5 nM. Also, the Ki was 4.5 nM on ROCK2 (setting [5]) and 4.5 nM on ROCK2 (average Ki, read-out: ROCK2 Ki). Besides, in series [1], the concentration at 15 min is 1260 nM.

The Ki is the dissociation constant of the complex between target and ligand, obtained from inhibition or displacement.
